Data: ChEMBL document CHEMBL3244328, “trans-2,3b,4,5,7,8b,9,10-Octahydronaphtho[1,2-c:5,6-c']dipyrazole, a new orally active antiallergic compound” (1978)
Activity calls are given as the source filed them. The calls are words filed in the database; no cut-off is given here.

Legend:
Format in all cases: functional
Rattus norvegicus [1] = test: Antiallergic activity in Sprague-Dawley rat assessed as inhibition of mouse antiserum-induced passive cutaneous anaphylaxis at 100 mg/kg, po administered 1 hr before antiserum challenge measured after 3 hrs by Evans blue staining relative to control
Rattus norvegicus [2] = test: Antiallergic activity in Sprague-Dawley rat assessed as inhibition of mouse antiserum-induced passive cutaneous anaphylaxis at 50 mg/kg, po administered 1 hr before antiserum challenge measured after 30 mins by Evans blue staining relative to control; conditions: read-out: INH
Rattus norvegicus [3] = test: Antiallergic activity in Sprague-Dawley rat assessed as inhibition of mouse antiserum-induced passive cutaneous anaphylaxis at 200 mg/kg, po administered 1 hr before antiserum challenge measured after 6 hrs by Evans blue staining relative to control; conditions: read-out: INH
Rattus norvegicus [4] = test: Antiallergic activity in Sprague-Dawley rat assessed as inhibition of mouse antiserum-induced passive cutaneous anaphylaxis at 25 mg/kg, po administered 1 hr before antiserum challenge measured after 30 mins by Evans blue staining relative to control; conditions: read-out: INH
Rattus norvegicus [5] = test: Antiallergic activity in po dosed Sprague-Dawley rat assessed as inhibition of mouse antiserum-induced passive cutaneous anaphylaxis administered 1 hr before antiserum challenge measured after 30 mins by Evans blue staining
Rattus norvegicus [6] = test: Antiallergic activity in Sprague-Dawley rat assessed as inhibition of mouse antiserum-induced passive cutaneous anaphylaxis at 5 to 6 times ED50 mg/kg, po administered 1 hr before antiserum challenge measured after 30 mins by Evans blue staining relative to control

Compound | inhibition (Rattus norvegicus [1]) | inhibition in vivo at 100 mg/kg (Rattus norvegicus [1]; read-out: INH) | inhibition in vivo at 50 mg/kg (Rattus norvegicus [2]) | inhibition in vivo at 200 mg/kg (Rattus norvegicus [3]) | inhibition in vivo at 25 mg/kg (Rattus norvegicus [4]) | ED50 (Rattus norvegicus [5]) | inhibition (INH) (Rattus norvegicus [6])
Cn1cc2c(n1)[C@H]1CCc3cn(C)nc3[C@@H]1CC2 | inactive |  |  |  |  |  | 
c1[nH]nc2c1CC[C@H]1c3n[nH]cc3CC[C@H]21 |  | 65% | 61% | 63% | 33% | 35 mg/kg | 60%
c1ccc(-n2ncc3c2[C@H]2CCc4cnn(-c5ccccc5)c4[C@@H]2CC3)cc1 | inactive |  |  |  |  |  | 
